# According to patent US7820172B1, “Laminin-derived multi-domain peptides” (BioSurface Engineering Technologies, Inc., priority 2006, dated 2010):
# Positions of bridges follow the written chain, without caps; N, C: chain ends. Non-standard residues stand in square brackets, D forms with d. Residues, ends and D or L forms follow the SMILES beside them. Chains are numbered I, II in the order given. No end group written: not given here. Ahx = NCCCCCC(=O)O
# What was measured:
# RMEC cells = type: cell-based, rat; details: for cell binding to the polystyrene surface: RMEC cells, versus uncoated controls; for increase in percentage cells bound on polystyrene: 0.1 μg/ml, two hours, as a percentage of uncoated controls
# Experimental: Cells Adhesion and Proliferation on LA2 coated surfaces. To evaluate the effects of LA2-coating on cell attachment, untreated polystyrene 96-well plates were coated with LA2 in concentration indicated in figures. In the cases of EVA films, ePTFE and titanium, the materials were placed in 48- or 96-well plate and coated with 2 μg/ml of LA2. Cell suspension in density of 1×10^6/ml was added to the wells. […] Cell number on the surface was determined using CyQuant® cell Proliferation Kit (Molecular Probes, Eugene, Oreg.). To detect cell adhesion on the titanium and ePTFE surfaces, cells were fixed with 4% buffered formalin and stained with bis-benzamide, viewed using fluorescence microscopy, and images recorded on digital media. In the cell proliferation studies, EVA films (6.5 mm diameter), similar to those used in the cell adhesion studies, were coated with 2 μg LA2/ml. The coated films were placed in untreated polystyrene 96-well plate and A7R5 cell suspension in density of 1×10^5/ml was added to the wells. After incubation of 3 hours, 3 and 7 days, the EVA films were transferred to a new 96-well plate and cell number on the film was determined using CyQuant® cell Proliferation Kit.
# YIGSR is a different laminin adhesion sequence that has been used to increase cell attachment to device surfaces. […] Since cells could bind to LA2 via cell surface heparan sulfate, the heparin binding domain of LA2 was blocked by coating peptide on substrate-adsorbed heparin.
# cell attachment = test: Related cell binding assays comparing coatings (cell type not stated); type: cell-based; details: coating
# Male SD rats = test: Tissue integration of LA2-coated ePTFE in rat subcutaneous implant model; type: in vivo; details: two weeks after implant
# Experimental: Tissue integration of LA2-coated material in rat implant model. Male SD rats were anesthetized using an intraperitoneal administration of ketamine (40 mg/kg) and xylazine (5 mg/kg). Excess hair was removed and sterile surgical sites were prepared on the lower back. Subcutaneous pouches, approximately 3 cm long, were made through a skin incision using a hemostat and blunt dissection. A wafer (1×1.5 cm) of porous ePTFE was introduced into a subcutaneous pouch. The pouches were positioned on the upper flanks on either side of the backbone, with one wafer coated with MD LA2 and the other wafer uncoated. After the implant, the incision was closed with stainless steel surgical clips. Animals were assigned to experiment groups randomly. Each animal received bilateral subcutaneous implants. There were 8 implant sites for each treatment. After 14 days, animals were euthanized and the ePTFE implants were surgically recovered and processed for subsequent staining with hemotoxylin and eosin.
# We hypothesized that ePTFE coated with LA2 would display improved tissue integration. […] In this analysis, the depth of tissue penetration was monitored by histomorphometric methods and scored on a scale of 1-4 (in 25% increments).
# cell binding = test: Competitive blocking of cell binding to LA2; type: cell-based; details: binding not eliminated by either agent individually
# C2C12 cells = test: Attachment of C2C12 cells to coated polystyrene; type: cell-based, murine
# Experimental: FIG. 1. Microphotographs of C2C12 cell on LA2 polystyrene. Murine myoblast C2C12 cells were seeded on uncoated polystyrene (A), or polystyrene coated 0.05-(B), 0.2-(C), and 0.4 (D) μg/ml LA2. Three hours after cell seeding, the materials were washed with PBS and micrographs taken with phase contrast optics. Original magnification 200×.
# FIG. 2. Attachment of C2C12 cells to LA2 or SIKVAV (SEQ ID NO:16) coated polystyrene. C2C12 cells were seeded on polystyrene surface coated with LA2 (A) or SIKVAV (SEQ ID NO:16) (B). Three hours after seeding, unbound cells were removed by rinsing, and relative cell number determined using a fluorescent assay as described.
# Cells Adhesion and Proliferation on LA2 coated surfaces. To evaluate the effects of LA2-coating on cell attachment, untreated polystyrene 96-well plates were coated with LA2 in concentration indicated in figures. […] Cell number on the surface was determined using CyQuant® cell Proliferation Kit (Molecular Probes, Eugene, Oreg.). To detect cell adhesion on the titanium and ePTFE surfaces, cells were fixed with 4% buffered formalin and stained with bis-benzamide, viewed using fluorescence microscopy, and images recorded on digital media. […] After incubation of 3 hours, 3 and 7 days, the EVA films were transferred to a new 96-well plate and cell number on the film was determined using CyQuant® cell Proliferation Kit.
Compound,cell binding to the polystyrene surface (RMEC cells),increase in percentage cells bound on polystyrene (RMEC cells),level of cell binding when used as competitive blocking agent (cell binding),also measured
SEQ ID NO:26 (DTAYKDWPNLFREIR; Random sequence),did not support cell binding,,,
"H-YIGSRAAK(H-YIGSRAA)-Ahx-Ahx-Ahx-RKRKLERIAR-NH2 (chain 1 H-YIGSRAAK[Ahx][Ahx][Ahx]; also: branched: chain 2 on Lys8 side chain of chain 1, chain 1 C-terminus joined to chain 3 N-terminus via Ahx-Ahx-Ahx) [MD Peptide 2, similar multi-domain peptide containing YIGSR]",substantially more effective than uncoated controls,over 50%,,"cell attachment versus linear SIKVAV, dimerized SIKVAV and random-sequence peptides (cell attachment): more effective"
"CC[C@H](C)[C@H](NC(=O)[C@H](CCCNC(=N)N)NC(=O)[C@H](CCC(=O)O)NC(=O)[C@H](CC(C)C)NC(=O)[C@H](CCCCN)NC(=O)[C@H](CCCNC(=N)N)NC(=O)[C@H](CCCCN)NC(=O)[C@H](CCCNC(=N)N)NC(=O)CCCCCNC(=O)CCCCCNC(=O)CCCCCNC(=O)[C@H](CCCCNC(=O)[C@H](C)NC(=O)[C@H](C)NC(=O)[C@@H](NC(=O)[C@H](C)NC(=O)[C@@H](NC(=O)[C@H](CCCCN)NC(=O)[C@@H](NC(=O)[C@@H](N)CO)[C@@H](C)CC)C(C)C)C(C)C)NC(=O)[C@H](C)NC(=O)[C@H](C)NC(=O)[C@@H](NC(=O)[C@H](C)NC(=O)[C@@H](NC(=O)[C@H](CCCCN)NC(=O)[C@@H](NC(=O)[C@@H](N)CO)[C@@H](C)CC)C(C)C)C(C)C)C(=O)N[C@@H](C)C(=O)N[C@@H](CCCNC(=N)N)C(N)=O [LA2, H-SIKVAVAAK(H-SIKVAVAA)-Ahx-Ahx-Ahx-RKRKLERIAR-NH2] (I: H-SIKVAVAAK[Ahx][Ahx][Ahx]RKRKLERIAR-NH2 / II: H-SIKVAVAA; amide I:9-II:C)",,over 150%,,inflammation (Male SD rats): little evidence of inflammation
heparin,,,reduced the level of cell binding,
SEQ ID NO:25 (KPVSLSYRAPARFFESHVA; Random sequence),did not support cell binding,,,
SIKVAV (Cellular attachment peptide sequence),,,reduced the level of cell binding,"coating concentration required to achieve the same levels of cell attachment (C2C12 cells; C2C12, polystyrene (FIG. 2)): 100 µg/mL; cell attachment compared to uncoated polystyrene (C2C12 cells; C2C12 cells, coated polystyrene, 3 hours): able to increase cell attachment"
